{"source": "ChEMBL document CHEMBL1671630", "about": "“Phenotypic characterization of two Ancylostoma caninum isolates with different susceptibilities to the anthelmintic pyrantel” (Antimicrob Agents Chemother, 2008)", "type_in_all_cases": "functional", "key": {"Ancylostoma caninum [1]": {"system": "Ancylostoma caninum", "assay": "Ratio of IC50 for Ancylostoma caninum isolate NT to IC50 for Ancylostoma caninum isolate PR by larval motility assay"}, "Ancylostoma caninum [2]": {"system": "Ancylostoma caninum", "assay": "Antiparasitic activity against Ancylostoma caninum isolate PR assessed as compound concentration required to inhibit parasitic contraction by larval arrested morphology assay"}, "Ancylostoma caninum [3]": {"system": "Ancylostoma caninum", "assay": "Ratio of EC50 for Ancylostoma caninum isolate PR to […] by force transduction assay"}, "Ancylostoma caninum [4]": {"system": "Ancylostoma caninum", "assay": "Antiparasitic activity against Ancylostoma caninum isolate NT assessed as concentration of drug required to cause a force of contraction half that of the KCl-induced maximal contraction by force transduction assay"}, "Ancylostoma caninum [5]": {"system": "Ancylostoma caninum", "assay": "Antiparasitic activity against Ancylostoma caninum isolate PR assessed as concentration of drug required to cause a force of contraction half that of the KCl-induced maximal contraction by force transduction assay"}, "Ancylostoma caninum [6]": {"system": "Ancylostoma caninum", "assay": "Antiparasitic activity against Ancylostoma caninum isolate NT assessed as compound concentration required to inhibit parasitic contraction by larval motility assay"}, "Ancylostoma caninum [7]": {"system": "Ancylostoma caninum", "assay": "Ratio of IC50 for Ancylostoma caninum isolate NT to IC50 for Ancylostoma caninum isolate PR by larval arrested morphology assay"}, "Ancylostoma caninum [8]": {"system": "Ancylostoma caninum", "assay": "Antiparasitic activity against Ancylostoma caninum isolate PR assessed as compound concentration required to inhibit parasitic contraction by larval motility assay"}, "Ancylostoma caninum [9]": {"system": "Ancylostoma caninum", "assay": "Antiparasitic activity against Ancylostoma caninum isolate NT assessed as compound concentration required to inhibit parasitic contraction by larval arrested morphology assay"}}}
{"smiles": "C[N+](C)(CCOc1ccccc1)Cc1ccccc1.O=C([O-])c1cc2ccccc2cc1O", "note": "[BEPHENIUM HYDROXYNAPHTHOATE]", "values": [{"measurement": "Ratio IC50", "setting": "Ancylostoma caninum [1]", "value": 0.45}, {"measurement": "IC50", "setting": "Ancylostoma caninum [2]", "value": 17, "unit": "µM"}, {"measurement": "Ratio EC50", "setting": "Ancylostoma caninum [3]", "value": 0.97}, {"measurement": "EC50", "setting": "Ancylostoma caninum [4]", "value": 2880, "unit": "µM"}, {"measurement": "EC50", "setting": "Ancylostoma caninum [5]", "value": 2790, "unit": "µM"}, {"measurement": "IC50", "setting": "Ancylostoma caninum [6]", "value": 19, "unit": "µM"}, {"measurement": "Ratio IC50", "setting": "Ancylostoma caninum [7]", "value": 0.46}, {"measurement": "IC50", "setting": "Ancylostoma caninum [8]", "value": 8.6, "unit": "µM"}, {"measurement": "IC50", "setting": "Ancylostoma caninum [9]", "value": 45, "unit": "µM"}]}
{"smiles": "Cl.c1ccc([C@H]2CN3CCSC3=N2)cc1", "note": "[LEVAMISOLE HYDROCHLORIDE]", "values": [{"measurement": "Ratio IC50", "setting": "Ancylostoma caninum [1]", "value": 2.7}, {"measurement": "IC50", "setting": "Ancylostoma caninum [2]", "value": 0.017, "unit": "µM"}, {"measurement": "Ratio EC50", "setting": "Ancylostoma caninum [3]", "value": 2}, {"measurement": "EC50", "setting": "Ancylostoma caninum [4]", "value": 120, "unit": "µM"}, {"measurement": "EC50", "setting": "Ancylostoma caninum [5]", "value": 244, "unit": "µM"}, {"measurement": "IC50", "setting": "Ancylostoma caninum [6]", "value": 0.0015, "unit": "µM"}, {"measurement": "Ratio IC50", "setting": "Ancylostoma caninum [7]", "value": 7.2}, {"measurement": "IC50", "setting": "Ancylostoma caninum [8]", "value": 0.004, "unit": "µM"}, {"measurement": "IC50", "setting": "Ancylostoma caninum [9]", "value": 0.0022, "unit": "µM"}]}
{"smiles": "CN1CCC[C@H]1c1cccnc1", "note": "[NICOTINE]", "values": [{"measurement": "Ratio IC50", "setting": "Ancylostoma caninum [1]", "value": 0.95}, {"measurement": "IC50", "setting": "Ancylostoma caninum [2]", "value": 6.2, "unit": "µM"}, {"measurement": "Ratio EC50", "setting": "Ancylostoma caninum [3]", "value": 2.1}, {"measurement": "EC50", "setting": "Ancylostoma caninum [4]", "value": 942, "unit": "µM"}, {"measurement": "EC50", "setting": "Ancylostoma caninum [5]", "value": 1960, "unit": "µM"}, {"measurement": "IC50", "setting": "Ancylostoma caninum [6]", "value": 3.7, "unit": "µM"}, {"measurement": "Ratio IC50", "setting": "Ancylostoma caninum [7]", "value": 1.07}, {"measurement": "IC50", "setting": "Ancylostoma caninum [8]", "value": 3.6, "unit": "µM"}, {"measurement": "IC50", "setting": "Ancylostoma caninum [9]", "value": 5.8, "unit": "µM"}]}
{"smiles": "CN1CCCN=C1/C=C/c1cccs1", "note": "[PYRANTEL PAMOATE]", "values": [{"measurement": "IC50", "setting": "Ancylostoma caninum [2]", "value": 0.066, "unit": "µM"}, {"measurement": "EC50", "setting": "Ancylostoma caninum [4]", "value": 217, "unit": "µM"}, {"measurement": "EC50", "setting": "Ancylostoma caninum [5]", "value": 681, "unit": "µM"}, {"measurement": "IC50", "setting": "Ancylostoma caninum [9]", "value": 0.0037, "unit": "µM"}]}
{"smiles": "CN1CCCN=C1/C=C/c1cccs1.O=C(O)c1cc2ccccc2c(Cc2c(O)c(C(=O)O)cc3ccccc23)c1O", "note": "[PYRANTEL PAMOATE]", "values": [{"measurement": "Ratio EC50", "setting": "Ancylostoma caninum [3]", "value": 3.1}, {"measurement": "Ratio IC50", "setting": "Ancylostoma caninum [7]", "value": 18.3}]}
